{
  "source": "paper PMC8793051",
  "about": "(ACS Omega, 2022)",
  "key": {"U251": {"test_system": "U251", "assay": "NCI-60 SRB growth assay", "type": "cell-based, human"}, "SF-268": {"test_system": "SF-268", "assay": "NCI-60 SRB growth assay", "type": "cell-based, human"}, "HOP-62": {"test_system": "HOP-62", "assay": "NCI-60 SRB growth assay", "type": "cell-based, human", "conditions": "HOP-62"}, "OVCAR-8": {"test_system": "OVCAR-8", "assay": "NCI-60 SRB growth assay", "type": "cell-based, human", "conditions": "OVCAR-8"}, "UACC-257": {"test_system": "UACC-257", "assay": "NCI-60 SRB growth assay", "type": "cell-based, human"}, "SK-MEL-28": {"test_system": "SK-MEL-28", "assay": "NCI-60 SRB growth assay", "type": "cell-based, human"}, "SF-539": {"test_system": "SF-539", "assay": "NCI-60 SRB growth assay", "type": "cell-based, human"}, "PC-3": {"test_system": "PC-3", "assay": "NCI-60 SRB growth assay", "type": "cell-based, human"}, "A498": {"test_system": "A498", "assay": "NCI-60 SRB growth assay", "type": "cell-based, human"}, "IGROV1": {"test_system": "IGROV1", "assay": "NCI-60 SRB growth assay", "type": "cell-based, human"}, "[1]": {"test_system": "oligo-1: d(CGCGAATTCGCG)2", "assay": "UV thermal denaturation", "type": "binding"}, "HCT-116": {"test_system": "HCT-116", "assay": "NCI-60 SRB growth assay", "type": "cell-based, human", "conditions": "HCT-116"}, "OVCAR-5": {"test_system": "OVCAR-5", "assay": "NCI-60 SRB growth assay", "type": "cell-based, human"}, "Hu Topo I": {"molecular_target": "T1, Hu Topo I (Homo sapiens, UniProt P11387)", "T1 sequence (P11387 1-765)": "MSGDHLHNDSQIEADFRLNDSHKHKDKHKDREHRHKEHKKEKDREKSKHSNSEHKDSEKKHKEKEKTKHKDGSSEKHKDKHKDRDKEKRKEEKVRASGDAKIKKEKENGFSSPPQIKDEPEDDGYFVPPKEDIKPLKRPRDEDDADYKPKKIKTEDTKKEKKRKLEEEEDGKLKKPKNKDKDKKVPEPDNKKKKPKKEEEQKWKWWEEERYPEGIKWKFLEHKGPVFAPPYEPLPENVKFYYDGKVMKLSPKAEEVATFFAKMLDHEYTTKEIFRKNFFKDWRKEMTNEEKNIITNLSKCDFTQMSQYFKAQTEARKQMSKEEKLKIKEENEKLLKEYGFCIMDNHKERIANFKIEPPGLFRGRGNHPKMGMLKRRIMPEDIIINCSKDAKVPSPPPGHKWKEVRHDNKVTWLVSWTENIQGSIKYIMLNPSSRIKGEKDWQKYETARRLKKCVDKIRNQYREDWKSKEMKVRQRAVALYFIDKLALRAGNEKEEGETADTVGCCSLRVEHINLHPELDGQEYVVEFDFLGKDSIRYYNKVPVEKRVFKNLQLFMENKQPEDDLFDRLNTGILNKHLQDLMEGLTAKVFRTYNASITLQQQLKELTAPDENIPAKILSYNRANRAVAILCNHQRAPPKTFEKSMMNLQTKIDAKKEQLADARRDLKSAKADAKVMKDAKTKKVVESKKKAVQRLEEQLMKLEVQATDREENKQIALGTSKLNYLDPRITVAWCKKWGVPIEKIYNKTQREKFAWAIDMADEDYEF", "assay": "Plasmid DNA relaxation assay"}, "MDA-MB-435": {"test_system": "MDA-MB-435", "assay": "NCI-60 SRB growth assay", "type": "cell-based, human"}, "EKVX": {"test_system": "EKVX", "assay": "NCI-60 SRB growth assay", "type": "cell-based, human"}, "HEK": {"test_system": "HEK", "assay": "MTT cytotoxicity assay", "type": "cell-based", "conditions": "Homo sapiens, HEK293, 48 h"}, "T-47D": {"test_system": "T-47D", "assay": "NCI-60 SRB growth assay", "type": "cell-based, human"}, "MCF7": {"test_system": "MCF7", "assay": "NCI-60 SRB growth assay", "type": "cell-based, human"}, "LOX IMVI": {"test_system": "LOX IMVI", "assay": "NCI-60 SRB growth assay", "type": "cell-based, human"}, "SR": {"test_system": "SR", "assay": "NCI-60 SRB growth assay", "type": "cell-based, human"}, "HL-60(TB)": {"test_system": "HL-60(TB)", "assay": "cells", "conditions": "Homo sapiens"}, "NIH3T3": {"test_system": "NIH3T3", "assay": "MTT cytotoxicity assay", "type": "cell-based", "conditions": "Mus musculus, NIH3T3, 48 h"}, "NCI-H23": {"test_system": "NCI-H23", "assay": "NCI-60 SRB growth assay", "type": "cell-based, human"}, "HT29": {"test_system": "HT29", "assay": "NCI-60 SRB growth assay", "type": "cell-based, human"}, "RXF 393": {"test_system": "RXF 393", "assay": "NCI-60 SRB growth assay", "type": "cell-based, human"}},
  "data": [
    {"smiles": "CCCCN1CCN(c2ccc3[nH]c(-c4ccc5[nH]c(-c6ccc(C(F)(F)F)cc6)nc5c4)nc3c2)CC1", "note": "[12b, 5-(5-(4-Butylpiperazin-1-yl)-1H-benzo[d]imidazol-2-yl)2(4(trifluoromethyl)phenyl)-1H-benzo[d]imidazole]", "values": [
      {"measurement": "GI50", "setting": "U251; Homo sapiens, U-251", "result": 0.24, "unit": "µM"},
      {"measurement": "TGI", "setting": "U251; U251", "result": 0.56, "unit": "µM"},
      {"measurement": "GI50", "setting": "SF-268; Homo sapiens, SF-268", "result": 1.7, "unit": "µM"},
      {"measurement": "CC50", "setting": "SF-268; Homo sapiens, SF-268, read-out: LC50", "result": 6.4, "unit": "µM"},
      {"measurement": "TGI", "setting": "SF-268; SF-268", "result": 3.3, "unit": "µM"},
      {"measurement": "TGI", "setting": "HOP-62", "result": 3.05, "unit": "µM"},
      {"measurement": "GI50", "setting": "HOP-62; Homo sapiens", "result": 1.3, "unit": "µM"},
      {"measurement": "GI50", "setting": "OVCAR-8; Homo sapiens", "result": 1.1, "unit": "µM"},
      {"measurement": "TGI", "setting": "OVCAR-8", "result": 2.8, "unit": "µM"},
      {"measurement": "GI50", "setting": "UACC-257; Homo sapiens, UACC-257", "result": 1.7, "unit": "µM"},
      {"measurement": "CC50", "setting": "UACC-257; Homo sapiens, UACC-257, read-out: LC50", "result": 7.2, "unit": "µM"},
      {"measurement": "TGI", "setting": "UACC-257; UACC-257", "result": 3.5, "unit": "µM"},
      {"measurement": "GI50", "setting": "SK-MEL-28; Homo sapiens, SK-MEL-28", "result": 1.7, "unit": "µM"},
      {"measurement": "CC50", "setting": "SK-MEL-28; Homo sapiens, SK-MEL-28, read-out: LC50", "result": 5.9, "unit": "µM"},
      {"measurement": "TGI", "setting": "SK-MEL-28; SK-MEL-28", "result": 3.1, "unit": "µM"},
      {"measurement": "GI50", "setting": "SF-539; Homo sapiens, SF-539", "result": 1.6, "unit": "µM"},
      {"measurement": "CC50", "setting": "SF-539; Homo sapiens, SF-539, read-out: LC50", "result": 5.8, "unit": "µM"},
      {"measurement": "TGI", "setting": "SF-539; SF-539", "result": 3.05, "unit": "µM"},
      {"measurement": "GI50", "setting": "PC-3; Homo sapiens, PC-3", "result": 0.86, "unit": "µM"},
      {"measurement": "CC50", "setting": "PC-3; Homo sapiens, PC-3, read-out: LC50", "result": 5.5, "unit": "µM"},
      {"measurement": "TGI", "setting": "PC-3; PC-3", "result": 2.31, "unit": "µM"},
      {"measurement": "TGI", "setting": "A498; A498", "result": 3.31, "unit": "µM"},
      {"measurement": "GI50", "setting": "A498; Homo sapiens, A498", "result": 1.69, "unit": "µM"},
      {"measurement": "CC50", "setting": "A498; Homo sapiens, A498, read-out: LC50", "result": 6.49, "unit": "µM"},
      {"measurement": "GI50", "setting": "IGROV1; Homo sapiens, IGROV-1", "result": 1.7, "unit": "µM"},
      {"measurement": "TGI", "setting": "IGROV1; IGROV1", "result": 3.4, "unit": "µM"},
      {"measurement": "ΔTm", "setting": "[1]; r = 0.5", "result": 3, "unit": "°C"},
      {"measurement": "Tm", "setting": "[1]; r = 0.5, oligo 2.5 μM", "result": 57.7, "unit": "°C"},
      {"measurement": "Tm", "setting": "[1]; r = 1", "result": 58.7, "unit": "°C"},
      {"measurement": "ΔTm", "setting": "[1]; r = 1", "result": 4, "unit": "°C"},
      {"measurement": "Tm", "setting": "[1]; r = 1.5", "result": 59.7, "unit": "°C"},
      {"measurement": "ΔTm", "setting": "[1]; r = 1.5", "result": 5, "unit": "°C"},
      {"measurement": "Tm", "setting": "[1]; r = 2.0", "result": 61.7, "unit": "°C"},
      {"measurement": "ΔTm", "setting": "[1]; r = 2.0", "result": 7, "unit": "°C"},
      {"measurement": "TGI", "setting": "HCT-116", "result": 0.42, "unit": "µM"},
      {"measurement": "GI50", "setting": "HCT-116; Homo sapiens", "result": 0.2, "unit": "µM"},
      {"measurement": "GI50", "setting": "OVCAR-5; Homo sapiens, OVCAR-5", "result": 1.8, "unit": "µM"},
      {"measurement": "CC50", "setting": "OVCAR-5; Homo sapiens, OVCAR-5, read-out: LC50", "result": 5.9, "unit": "µM"},
      {"measurement": "TGI", "setting": "OVCAR-5; OVCAR-5", "result": 3.5, "unit": "µM"},
      {"measurement": "IC50", "setting": "Hu Topo I", "result": 16, "unit": "µM"},
      {"measurement": "GI50", "setting": "MDA-MB-435; Homo sapiens, MDA-MB-435", "result": 1.4, "unit": "µM"},
      {"measurement": "CC50", "setting": "MDA-MB-435; Homo sapiens, MDA-MB-435, read-out: LC50", "result": 5.5, "unit": "µM"},
      {"measurement": "TGI", "setting": "MDA-MB-435; MDA-MB-435", "result": 2.8, "unit": "µM"},
      {"measurement": "TGI", "setting": "EKVX", "result": 2.9, "unit": "µM"},
      {"measurement": "GI50", "setting": "EKVX; Homo sapiens", "result": 1.5, "unit": "µM"},
      {"measurement": "CC50", "setting": "EKVX; Homo sapiens, read-out: LC50", "result": 5.7, "unit": "µM"},
      {"measurement": "IC50", "setting": "HEK", "result": 2.7, "unit": "µM"},
      {"measurement": "GI50", "setting": "T-47D; Homo sapiens, T47D", "result": 1.24, "unit": "µM"},
      {"measurement": "TGI", "setting": "T-47D; T-47D", "result": 3.23, "unit": "µM"},
      {"measurement": "TGI", "setting": "MCF7", "result": 0.57, "unit": "µM"},
      {"measurement": "GI50", "setting": "MCF7; Homo sapiens", "result": 0.17, "unit": "µM"},
      {"measurement": "TGI", "setting": "LOX IMVI", "result": 1.1, "unit": "µM"},
      {"measurement": "GI50", "setting": "LOX IMVI; Homo sapiens", "result": 0.38, "unit": "µM"},
      {"measurement": "TGI", "setting": "SR", "result": 0.65, "unit": "µM"},
      {"measurement": "GI50", "setting": "SR; Homo sapiens", "result": 0.26, "unit": "µM"},
      {"measurement": "GI50", "setting": "HL-60(TB); HL-60", "result": 1.2, "unit": "µM"},
      {"measurement": "CC50", "setting": "HL-60(TB); HL-60, read-out: LC50", "result": 6.6, "unit": "µM"},
      {"measurement": "IC50", "setting": "NIH3T3", "result": 3.2, "unit": "µM"},
      {"measurement": "GI50", "setting": "NCI-H23; Homo sapiens, NCI-H23", "result": 1.65, "unit": "µM"},
      {"measurement": "CC50", "setting": "NCI-H23; Homo sapiens, NCI-H23, read-out: LC50", "result": 6.8, "unit": "µM"},
      {"measurement": "TGI", "setting": "NCI-H23; NCI–H23", "result": 3.36, "unit": "µM"},
      {"measurement": "TGI", "setting": "HT29; HT29", "result": 1.42, "unit": "µM"},
      {"measurement": "GI50", "setting": "HT29; Homo sapiens, HT-29", "result": 0.34, "unit": "µM"},
      {"measurement": "GI50", "setting": "RXF 393; Homo sapiens, RXF 393", "result": 0.47, "unit": "µM"},
      {"measurement": "TGI", "setting": "RXF 393; RXF393", "result": 1.5, "unit": "µM"}
    ]}
  ]
}
